Measurements published in patent US20130123206A1, “TREATMENT OF METABOLIC SYNDROME AND INSULIN RESISTANCE WITH CITRUS FLAVANONES” (priority 2010, published 2013).
Entries after “also recorded” stand apart in the source; their conditions may differ.

Key:
[1] = tested on: bovine aortic endothelial cells (BAEC); assay: Evaluation of NO production in fixed cells (DAF-2 DA fluorescence); type: cell-based; details: for NO production in response to hesperetin after inhibitor pre-treatment: 10 min; for NO production in response to hesperetin after inhibitor pre-treatment / NO production in response to insulin after inhibitor pre-treatment: inhibitor added 30 min before DAF-2 DA loading; for NO production in response to insulin after inhibitor pre-treatment: insulin 100 nM, 5 min
Protocol: Bovine aortic endothelial cells (BAEC) in primary culture (Cell Applications, San Diego, Calif.) were grown in EBM (Endothelial Basal Medium) containing EGM-MV supplements (Endothelial Growth Medium-Micro Vascular; Cambrex, Walkersville, Md.) and used between passages 3 and 5 as previously described (Formoso et al., Mol Endocrinol, 20:1153-63, 2006). […] Biol. Chem. 282:13736-45, 2007; Formoso et al., Mol. Endocrinol. 20:1153-63, 2006). Briefly, BAECs were grown to 95% confluence in Lab-Tek™ chamber slides (Rochester, N.Y.) and then serum-starved overnight in phenol red-free EBM supplemented with L-arginine (100 μM). BAECs were loaded with DAF-2 DA (3 μM) for 20 minutes at 37° C. […] After loading with DAF-2 DA for 20 minutes, cells were washed with EBM at 37° C. and kept in the dark. Next, BAECs were treated with insulin (100 nM, 5 minutes), lysophosphatidic acid (LPA; 5 μM, 5 minutes), or hesperetin (10 μM, 10 minutes; Sigma). After treatment, cells were fixed in 4% paraformaldehyde (vol/vol) for 5 minutes at 4° C. Fixed cells were visualized using an Olympus IX81 inverted microscope with attached CCD camera (Retiga Exi, Burnaby, BC, Canada) using appropriate filters with a peak excitation wavelength of 480 nm and a peak emission wavelength of 510 nm. Images were captured using IPLab™ Software (Scanalytics, Inc., Fairfax, Va.).

[2] = tested on: bovine aortic endothelial cells (BAEC); assay: Measurement of H2O2/ROS production (CM-H2DCF-DA fluorescence); type: cell-based; details: for production of ROS in BAEC: 10 μM, 10 minutes
Protocol: Briefly, BAECs were plated on chamber slides and incubated overnight in media free of phenol red, serum, and growth factors. Cells were then washed with Dulbecco's phosphate buffered saline containing calcium and magnesium (DPBS) before each experiment. Cells were loaded with CM-H2DCF-DA (5 μM, 20 minutes, 37° C.) and then washed to remove excess CM-H2DCF-DA. Cells were then treated with H2O2, hesperetin, or naringenin as indicated in the legends to figures followed by washing three times with DPBS. Some groups of cells were pre-treated with N-acetylcysteine (NAC) (10 mM, 2 hours). Cells were then visualized and images were captured as described for measurement of NO production.

[3] = tested on: bovine aortic endothelial cells (BAEC); assay: Immunoblotting of phospho-AMPK, phospho-Akt, phospho-eNOS and phospho-Src in BAEC; type: cell-based
Protocol: Bovine aortic endothelial cells (BAEC) in primary culture (Cell Applications, San Diego, Calif.) were grown in EBM (Endothelial Basal Medium) containing EGM-MV supplements (Endothelial Growth Medium-Micro Vascular; Cambrex, Walkersville, Md.) and used between passages 3 and 5 as previously described (Formoso et al., Mol Endocrinol, 20:1153-63, 2006). BAECs were grown in 60 mm dishes, serum-starved overnight, and then treated with hesperetin (10 μM) for varying durations or for 10 minutes at different concentrations. In some experiments, Wortmannin (100 nM), or Compound C (5 μM) was added to cells 1 hour before treating with hesperetin. Cell lysates were prepared using 120 μl of lysis buffer (100 mM NaCl, 20 mM Hepes, pH 7.9, 1% Triton X-100, 1 mM Na3VO4, 4 mM sodium pyrophosphate, 10 mM EDTA, 1 mM phenylmethylsulfonyl fluoride, 10 mM NaF, and complete protease inhibitor cocktail (Roche Applied Sciences, Indianapolis, Ind.)). After centrifugation of samples at 17,000×g for 5 minutes at 4° C., supernatants were boiled with Laemmli sample buffer for 5 minutes and proteins (50 μg total protein) were resolved by 10% SDS-PAGE, transferred to nitrocellulose membranes, and immunoblotted using antibodies against eNOS (Transduction Laboratories), phospho-eNOS ([…]), Akt, phospho-Akt ([…]), AMPK, phospho-AMPK ([…]), Src ([…]) (Cell Signaling Technology), VCAM-1 (Santa Cruz, Calif.) or β-actin (Sigma) according to standard methods. Immunoblots were quantified by scanning densitometry (GE Healthcare).

[4] = tested on: VCAM-1 expression in BAEC; assay: TNF-α-stimulated VCAM-1 expression by immunoblotting; type: cell-based, bovine; details: 5 hours
Protocol: FIG. 5A is a digital image showing vascular cell adhesion molecule-1 (VCAM-1) expression by immunoblotting. BAECs were serum-starved overnight and then treated without or with TNF-α (10 ng/ml, 5 hours). In some groups, cells were pre-treated with hesperetin (10 μM, 1 hour) prior to treatment with TNF-α. Cell lysates were immunoblotted using antibodies against VCAM-1 or β-actin. Representative immunoblots are shown for experiments that were repeated independently four times. BAECs were grown in 60 mm dishes, serum-starved overnight, and then treated with hesperetin (10 μM) for varying durations or for 10 minutes at different concentrations. In some experiments, Wortmannin (100 nM), or Compound C (5 μM) was added to cells 1 hour before treating with hesperetin. Cell lysates were prepared using 120 μl of lysis buffer (100 mM NaCl, 20 mM Hepes, pH 7.9, 1% Triton X-100, 1 mM Na3VO4, 4 mM sodium pyrophosphate, 10 mM EDTA, 1 mM phenylmethylsulfonyl fluoride, 10 mM NaF, and complete protease inhibitor cocktail (Roche Applied Sciences, Indianapolis, Ind.)). […] Immunoblots were quantified by scanning densitometry (GE Healthcare).

[5] = tested on: U937 monocytes adhering to BAECs; assay: Monocyte adhesion assay; type: cell-based, bovine; details: 5 hours
Protocol: BAECs were cultured in 6-well plates and then treated with TNF-α (10 ng/ml, 5 hours) or hesperetin (10 μM, 5 hours). In some experiments, hesperetin was added 1 hour before treating cells with TNF-α. U937 monocytes were grown in DMEM medium containing 10% FBS in a culture flask. U937 monocytes were labeled for 15 min with 5 μM calcein-AM (Molecular Probes, Inc.). Labeled U937 cells (6×10^5 cells) were then incubated for 30 minutes at 37° C. with confluent BAECs pre-treated with hesperetin and/or TNF-α. Co-cultured cells were washed three times with PBS and then images of monocytes adhering to BAECs were obtained with an Olympus IX81 inverted microscope with attached CCD camera (Retiga Exi, Burnaby, BC, Canada) using appropriate filters. Images were captured using IPLab™ Software (Scanalytics, Inc., Fairfax, Va.).

[6] = hesperetin 10 μM, 1 hour before TNF-α 10 ng/ml
[7] = BAEC serum-starved overnight, hesperetin 10 min at varying concentrations or 10 μM for varying durations

For `c1cc(-c2cnn3cc(-c4ccc(OCCN5CCCCC5)cc4)cnc23)ccn1` [Compound C], which “NO production in response to hesperetin after inhibitor pre-treatment” value ([1]; hesperetin 10 μM) is on record?
Its value is “substantially inhibited”.

`COC(=O)[C@@H](N)CCCNC(=N)N[N+](=O)[O-]` [L-NAME, L-N^G-Nitroarginine methyl ester] was tested. Which “NO production in response to hesperetin after inhibitor pre-treatment” value ([1]; hesperetin 10 μM) did it give?
The value was “blocked”.

What about the “NO production in response to insulin after inhibitor pre-treatment” value [1] of the same compound?
Its value is “blocked”.

What does the source list for `CC(=O)N[C@@H](CS)C(=O)O` [N-acetylcysteine, reference compound]?
production of ROS after NAC pre-treatment ([2]; NAC 10 mM, 2 hours before loading): scavenged; hesperetin and naringenin-stimulated phosphorylation of Src (Tyr418), Akt (Ser473), and eNOS (Ser1179) after NAC pre-treatment ([3]; NAC 10 mM, 2 hours, flavanone 10 μM, 10 min): inhibited

What does the source list for `CC(C)(C)n1nc(-c2ccc(Cl)cc2)c2c(N)ncnc21` [PP2]?
hesperetin-stimulated phosphorylation of Src, Akt, and eNOS after PP2 pre-treatment ([3]; PP2 1 μM, 1 hour, hesperetin 10 μM, 10 min): inhibited; NO production in response to hesperetin after inhibitor pre-treatment ([1]; hesperetin 10 μM): inhibited; NO production in response to insulin after inhibitor pre-treatment [1]: failed to inhibit

What does the source list for `COc1ccc([C@@H]2CC(=O)c3c(O)cc(O)cc3O2)cc1O` [hesperetin]?
production of ROS in BAEC [2]: stimulated; TNF-α-stimulated expression of VCAM-1 after hesperetin pre-treatment [4, 6]: substantially reduced; cellular levels of phosphorylated AMPK (Thr172) [3, 7]: Significant concentration-dependent effects; also recorded: acutely increased; also recorded: Significant time-dependent effects; cellular levels of phosphorylated Akt (Ser473) [3, 7]: Significant concentration-dependent effects; also recorded: acutely increased; also recorded: Significant time-dependent effects; phospho-eNOS (Ser1179) [3, 7]: Significant concentration-dependent effects; also recorded: increased; also recorded: Significant time-dependent effects; TNF-α-stimulated adhesion of monocytes to endothelial cells after hesperetin pre-treatment [5, 6]: substantially reduced; hesperetin-stimulated NO production in BAEC ([1]; DAF-2 DA, 10 min at varying concentrations or 10 μM for varying durations): concentration- and time-dependent increase; time of peak production of NO ([1]; hesperetin 10 μM, BAEC): 5 to 10 min

For `O=C1C[C@@H](c2ccc(O)cc2)Oc2cc(O)cc(O)c21` [naringenin], which “production of ROS in BAEC” value [2] is on record?
Its value is “stimulated”.

Which “expression of VCAM-1 vs vehicle-treated control cells” value ([4]; TNF-α 10 ng/ml) does the source give for TNF-α here?
The value was “increased”.

What about the “adhesion of labeled monocytes vs vehicle-treated control cells” value ([5]; TNF-α 10 ng/ml) of the same compound?
Its value is “corresponding increase”.
